Assays:
[1] = tested on: EGFR (human), P00533 [delE746-A750]; conditions: hcc827
[2] = tested on: EGFR (Human), P00533 [T790M/L858R]; conditions: h1975
Chain of EGFR (Human), P00533 [T790M/L858R] (P00533 whole entry T790M/L858R, looked up): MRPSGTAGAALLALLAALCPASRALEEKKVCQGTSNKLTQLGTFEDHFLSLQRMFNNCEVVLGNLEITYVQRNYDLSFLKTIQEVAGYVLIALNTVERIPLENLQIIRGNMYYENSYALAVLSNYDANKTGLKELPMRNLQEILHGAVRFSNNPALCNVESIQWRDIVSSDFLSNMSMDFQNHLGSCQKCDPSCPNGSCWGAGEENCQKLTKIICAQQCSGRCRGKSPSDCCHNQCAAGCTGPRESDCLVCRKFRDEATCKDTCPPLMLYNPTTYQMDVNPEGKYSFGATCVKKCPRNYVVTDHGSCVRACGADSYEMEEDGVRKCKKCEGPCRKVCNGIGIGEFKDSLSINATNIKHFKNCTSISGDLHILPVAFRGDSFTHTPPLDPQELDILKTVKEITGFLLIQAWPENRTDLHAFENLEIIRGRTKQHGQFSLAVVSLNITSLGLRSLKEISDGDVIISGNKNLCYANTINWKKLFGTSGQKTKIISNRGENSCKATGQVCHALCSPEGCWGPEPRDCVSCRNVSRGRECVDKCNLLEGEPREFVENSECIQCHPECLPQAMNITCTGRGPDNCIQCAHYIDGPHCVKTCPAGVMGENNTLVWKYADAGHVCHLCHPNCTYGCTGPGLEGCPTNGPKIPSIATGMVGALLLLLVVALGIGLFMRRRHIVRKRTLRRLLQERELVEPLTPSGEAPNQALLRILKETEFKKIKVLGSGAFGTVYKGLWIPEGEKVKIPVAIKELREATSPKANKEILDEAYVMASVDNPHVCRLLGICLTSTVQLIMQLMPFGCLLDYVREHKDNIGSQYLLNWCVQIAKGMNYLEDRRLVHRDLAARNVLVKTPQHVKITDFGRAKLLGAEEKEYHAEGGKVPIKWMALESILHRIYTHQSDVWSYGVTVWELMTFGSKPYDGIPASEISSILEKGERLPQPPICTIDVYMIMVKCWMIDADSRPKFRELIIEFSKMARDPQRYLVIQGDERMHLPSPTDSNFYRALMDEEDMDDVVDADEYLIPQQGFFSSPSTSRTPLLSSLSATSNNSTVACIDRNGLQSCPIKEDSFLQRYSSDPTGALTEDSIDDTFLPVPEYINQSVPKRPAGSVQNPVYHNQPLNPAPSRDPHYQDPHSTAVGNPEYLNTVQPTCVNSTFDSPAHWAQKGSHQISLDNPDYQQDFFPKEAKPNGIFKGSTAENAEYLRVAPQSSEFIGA

Chain of EGFR (human), P00533 [delE746-A750] (P00533 whole entry, looked up, stated change not applied): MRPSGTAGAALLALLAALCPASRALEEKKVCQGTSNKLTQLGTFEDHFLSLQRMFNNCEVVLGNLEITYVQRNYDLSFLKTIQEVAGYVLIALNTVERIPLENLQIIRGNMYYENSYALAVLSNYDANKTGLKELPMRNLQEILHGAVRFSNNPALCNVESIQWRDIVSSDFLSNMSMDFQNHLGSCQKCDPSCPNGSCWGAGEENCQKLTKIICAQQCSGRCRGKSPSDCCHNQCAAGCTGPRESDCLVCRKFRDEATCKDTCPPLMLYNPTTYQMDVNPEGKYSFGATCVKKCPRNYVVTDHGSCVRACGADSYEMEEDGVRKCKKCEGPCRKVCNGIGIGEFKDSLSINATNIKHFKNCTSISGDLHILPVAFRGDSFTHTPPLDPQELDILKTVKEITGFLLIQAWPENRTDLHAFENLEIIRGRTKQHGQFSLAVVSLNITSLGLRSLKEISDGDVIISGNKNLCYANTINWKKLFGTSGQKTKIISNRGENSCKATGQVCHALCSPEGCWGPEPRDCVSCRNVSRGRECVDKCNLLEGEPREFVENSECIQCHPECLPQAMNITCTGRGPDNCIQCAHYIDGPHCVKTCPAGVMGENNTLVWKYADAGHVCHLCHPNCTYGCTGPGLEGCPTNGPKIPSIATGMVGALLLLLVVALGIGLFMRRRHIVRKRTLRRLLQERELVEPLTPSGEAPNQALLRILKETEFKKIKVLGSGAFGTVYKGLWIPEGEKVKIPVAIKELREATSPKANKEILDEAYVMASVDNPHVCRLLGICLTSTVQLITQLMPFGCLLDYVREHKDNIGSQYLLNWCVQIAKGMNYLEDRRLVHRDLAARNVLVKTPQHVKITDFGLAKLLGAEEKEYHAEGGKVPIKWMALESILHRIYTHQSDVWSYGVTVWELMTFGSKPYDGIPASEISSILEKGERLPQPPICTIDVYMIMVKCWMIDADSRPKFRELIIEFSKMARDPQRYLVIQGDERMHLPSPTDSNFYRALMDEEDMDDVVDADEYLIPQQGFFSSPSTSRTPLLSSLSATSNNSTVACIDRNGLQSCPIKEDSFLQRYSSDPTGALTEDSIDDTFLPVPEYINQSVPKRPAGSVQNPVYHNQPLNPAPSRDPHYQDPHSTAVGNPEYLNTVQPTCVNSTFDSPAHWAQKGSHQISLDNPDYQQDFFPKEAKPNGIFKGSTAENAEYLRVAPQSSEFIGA

`C=CC(=O)Nc1cccc(Oc2nc(Nc3ccccc3OC)ncc2F)c1` was tested, and the GI50 [1] was 100 to 500 nM.

For `C=CC(=O)Nc1cccc(Oc2nc(Nc3ccc(OC)c(OC)c3OC)ncc2C(F)(F)F)c1`, the GI50 [1] was 100 to 500 nM and the GI50 [2] was 100 to 500 nM.

In the case of `C=CC(=O)Nc1cccc(Oc2nc(Nc3ccccc3OC)ncc2C(F)(F)F)c1`, the GI50 [1] is reported as 100 to 500 nM.

With `C=CC(=O)Nc1cccc(Nc2nc(Nc3ccc(OC)cc3OC)ncc2Br)c1` the GI50 [1] was 100 to 500 nM.

Work on `C=CC(=O)Nc1cccc(Nc2nc(Nc3ccc(OC)cc3OC)ncc2Cl)c1` yielded a GI50 [1] of 500 to 1000 nM.

`C=CC(=O)Nc1cccc(Nc2nc(Nc3ccc(OC)c(OC)c3OC)ncc2Br)c1` was tested, and the GI50 [1] was 100 to 500 nM.

Compound `C=CC(=O)Nc1cccc(Oc2nc(Nc3ccc(OC)cc3OC)ncc2Br)c1` has a GI50 [2] of 500 to 1000 nM.

In the case of `C=CC(=O)Nc1cccc(Nc2nc(Nc3ccccc3OC)ncc2C(F)(F)F)c1`, the GI50 [1] is reported as 10 to 100 nM and the GI50 [2] is reported as 100 to 500 nM.

Compound `C=CC(=O)Nc1cccc(Nc2nc(Nc3cccc(OC)c3OC)ncc2C(F)(F)F)c1` has a GI50 [1] of 500 to 1000 nM.

`C=CC(=O)Nc1cccc(Oc2nc(Nc3ccc(OC)cc3OC)ncc2C(F)(F)F)c1` was tested, and the GI50 [1] was 100 to 500 nM and the GI50 [2] was 100 to 500 nM.

Compound `C=CC(=O)Nc1cccc(Nc2nc(Nc3ccccc3OC)ncc2Cl)c1` has a GI50 [1] of 500 to 1000 nM.

With `C=CC(=O)Nc1cccc(Oc2nc(Nc3ccc(OC)c(OC)c3OC)ncc2Cl)c1` the GI50 [1] was 100 to 500 nM and the GI50 [2] was 100 to 500 nM.

With `C=CC(=O)Nc1cccc(Nc2nc(Nc3ccc(OC)c(OC)c3OC)ncc2C(F)(F)F)c1` the GI50 [1] was 10 to 100 nM and the GI50 [2] was 100 to 500 nM.

`C=CC(=O)Nc1cccc(Oc2nc(Nc3cccc(OC)c3OC)ncc2Br)c1` gave a GI50 [1] of 500 to 1000 nM and a GI50 [2] of 500 to 1000 nM.

`C=CC(=O)Nc1cccc(Nc2nc(Nc3ccccc3OC)ncc2Br)c1` showed a GI50 [1] of 500 to 1000 nM and a GI50 [2] of 500 to 1000 nM.

From the Kinase Knowledgebase extract (Sharma et al. 2016)
